From patent US20240067651A1 (Biohaven Therapeutics Ltd., priority 2019, published 2024)
Values belong to the compound of their own block, whether it stands above or below them.

What was measured:
[1] = Stability in Simulated Gastric Fluid (SGF); assay type: in vitro ADME; set-up: key: % parent compound remaining relative to 0-minute sample
Experimental: (§1) Simulated gastric fluid (SGF) and Simulated intestinal fluid (SIF) stability are in vitro metrics indicating the ability of a compound to pass through the gastrointestinal tract […] or completely digested. An undigested or nearly undigested compound will usually survive gut transit long enough to be absorbed into the systemic circulation. Greater than 50% remaining intact compound at 1 hour indicates a relatively stable molecule that will likely be absorbed in the gut.
(§2) For each test compound, samples at a final concentration of 2 μg/mL are prepared in respective blank simulated gastric fluid with pepsin (pH 1.2) and simulated intestinal fluid with pancreatin (pH 6.8). All samples are incubated at 37° C. on a 150-rpm orbital shaker, and an aliquot is removed at predetermined time points (0 to 60 minutes). Samples are precipitated with three volumes of acetonitrile containing propranolol as internal standard, and centrifuged for 10 min at 2,000 g before LC-MS/MS analysis of the supernatant solutions. Percent parent compound remaining is determined relative to 0-minute incubation samples. If a sufficient number of time points are available, the degradation half-life is calculated based on the natural log of % compound remaining vs. time plot.

[2] = Plasma Stability; assay type: in vitro ADME, human
Experimental: Plasma stability estimates the ability of a compound to remain intact in the blood. For prodrugs that are intended to be hydrolyzed by plasma enzymes a certain level of instability in plasma indicates the compound is probably breaking down to the parent drug. A stability range of 25-75% remaining parent compound after 1 hour in plasma indicates the compound is likely breaking down to the parent drug molecule and a patient will be exposed to this parent molecule.
Assessment of plasma stability was carried out by individual incubations of drug candidates in fresh human plasma at a concentration of 1 μM for 1 hour at 37° C. After which, the samples were de-proteinized by addition of 2 volumes of acetonitrile containing 0.1% formic acid and internal standard, vortex mixed for 2 minutes and centrifuged at 4,000 rpm for 10 minutes to pellet precipitated protein. The resulting supernatant containing the drug candidates was diluted 5-fold with water containing 0.1% formic acid and submitted to LCMS/MS analysis. All determinations were done in triplicate. Plasma stability was expressed as percent of control remaining.
See Pelletier et al. ACS Med. Chem. Lett. 2018, 9, 752-756.

[3] = Stability in Simulated Intestinal Fluid (SIF); assay type: in vitro ADME; set-up: key: % parent compound remaining relative to 0-minute sample
Experimental: as §1, §2

[4] = simulated gastric fluid, remaining at 1 h
[5] = simulated intestinal fluid, remaining at 1 h
[6] = % remaining at 1 h in simulated gastric fluid, the 15th table
[7] = % remaining at 1 h in human plasma, the 15th table
[8] = % remaining at 1 h in simulated intestinal fluid, the 15th table
[9] = % remaining at 1 h, SGF with pepsin pH 1.2, 2 μg/mL, 37° C.
[10] = % remaining at 1 h, human plasma, 1 μM, 37° C.
[11] = % remaining at 1 h, SIF with pancreatin pH 6.8, 2 μg/mL, 37° C.
[12] = simulated gastric fluid, at 1 h
[13] = simulated intestinal fluid, at 1 h
[14] = bare number, unit or time not given, the 15th table Examples 204-207
[15] = bare number, unit or time not given

SGF ([1]; % remaining at 1 h in simulated gastric fluid, the 17th table): 77% remaining
human Plasma stability ([2]; % remaining at 1 h in human plasma, the 17th table): 55% remaining
SIF ([3]; % remaining at 1 h in simulated intestinal fluid, the 17th table): 5% remaining
Compound: CCCCCCCOC(=O)OCSc1nc(=O)c2c(ccn2COC(=O)OCCCCCCC)n1CCOC(C)C [Example 220]

SGF [1, 6]: 99% @ 1 h
human Plasma stability [2, 7]: 95% @ 1 h
SIF [3, 8]: 86% @ 1 h
Compound: CCCNC(=O)OCSc1nc(=O)c2c(ccn2C(=O)NCCC)n1CCOC(C)C [Example 184]

SGF [1, 9]: 100% remaining
human Plasma stability [2, 10]: 66% remaining
SIF [3, 11]: 98% remaining
Compound: CC(C)OCCn1c2nc(=O)c3c1ccn3COC(=O)CCC(=O)N1CCC(CC1)C(=O)OCS2 [Example 138, 25-[2-(propan-2-yloxy)ethyl]-3,15-dioxa-5-thia-7,13,20,25-tetraazatetra-cyclo[18.2.2.1^{6,10}.0^{9,13}]penta-cosa-6,9,11-triene-2,8,16,19-tetrone]

SGF [1, 12]: 99% remaining
human Plasma stability ([2]; human plasma, at 1 h): 96% remaining
SIF [3, 13]: 100% remaining
Compound: Cc1ccccc1N(C)C(=O)OCn1ccc2c1c(=O)[nH]c(=S)n2CCOC(C)C [Example 251]

SGF [1, 6]: 81% @ 1 h
human Plasma stability [2, 7]: 94% @ 1 h
SIF [3, 8]: 69% @ 1 h
Compound: CCCNC(=O)OCSc1nc(=O)c2[nH]ccc2n1CCOC(C)C [Example 182]

SGF [1, 6]: 100% remaining
human Plasma stability [2, 7]: 0% remaining
SIF [3, 8]: 43% remaining
Compound: CCOC(=O)OCSc1nc(=O)c2[nH]ccc2n1CCOC(C)C [Example 201]

SGF [1, 4]: 93% remaining
human Plasma stability ([2]; human plasma, remaining at 1 h): 0% remaining
SIF [3, 5]: 69% remaining
Compound: tert-butyl N-(2-{2-[methyl({[{{4-oxo-1-[2-(propan-2-yloxy)ethyl]-1H,4H,5H-pyrrolo[3,2-d]pyrimidin-2-yl}sulfanyl)methoxy]carbonyl})ami-no]ethoxy}ethyl)carbamate [Example 379]

SGF [1, 14]: 61
human Plasma stability [2, 7]: 2% remaining
SIF [3, 14]: 10
Compound: CC(C)OCCn1c(SCOC(=O)Oc2ccccc2)nc(=O)c2[nH]ccc21 [Example 205]

SGF [1, 12]: 100% remaining
human Plasma stability ([2]; human plasma, at 1 h): 100% remaining
SIF [3, 13]: 80% remaining
Compound: Cc1cccc(N(C)C(=O)OCn2ccc3c2c(=O)[nH]c(=S)n3CCOC(C)C)c1 [Example 252]

The remaining lines, values behind:

Compound: bis(trifluoroacetic acid) 5-{[2-({[(5-{[(2R)-2-amino-4-methylpentanoyl]oxy}penta-noyl)oxy]methyl}sulfanyl)-4-oxo-1-[2-(propan-2-yloxy)ethyl]-1H,4H,5H-pyrrolo[3,2-d]pyrimidin-5-yl]methoxy}-5-oxopentyl (2R)-2-amino-4-methylpentanoate [Example 351]
SGF [1, 4]: 69% remaining
human Plasma stability ([2]; human plasma, remaining at 1 h): 99% remaining
SIF [3, 5]: 14% remaining

Compound: {4-oxo-1-[2-(propan-2-yloxy)ethyl]-2-sulfanylidene-1H,2H,3H,4H,5H-pyrrolo[3,2-d]pyrimidin-5-yl}methyl (2R)-1-[2-(2-{[(tert-butoxy)carbonyl]amino}acetamido) acetyl]pyrrolidine-2-carboxylate [Example 405]
SGF ([1]; % remaining after 1 h in simulated gastric fluid): 83% remaining
human Plasma stability ([2]; % remaining after 1 h in human plasma): 1% remaining
SIF ([3]; % remaining after 1 h in simulated intestinal fluid): 81% remaining

Compound: butoxy)carbonyl]amino}ethoxy)eth-yl](methyl)carbamoyl}oxy)methyl]sul-fanyl}-4-oxo-1-[2-(propan-2-yloxy)ethyl]-1H,4H,5H-pyrrolo[3,2-d]pyrimidin-5-yl)methoxy]carbonyl}(methyl)ami-no)ethoxy]ethyl}carbamate [Example 381]
SGF [1, 4]: 82% remaining
human Plasma stability ([2]; human plasma, remaining at 1 h): 97% remaining
SIF [3, 5]: 97% remaining

Compound: CC(C)OCCn1c(=S)n2c(=O)c3c1ccn3COC(=O)CCCCCCC(=O)OC2 [Example 134, 16-[2-(Propan-2-yloxy)ethyl]-15-sulfanylidene-3,12-dioxa-1,14,16-triazatricyclo[12.5.2.0^{17,20}]henicosa-17(20),18-diene-4,11,21-trione]
SGF [1, 9]: 99%
human Plasma stability [2, 10]: 1%
SIF [3, 11]: 1%

Compound: CC(C)OCCn1c(=S)n(COC(=O)C2CCNCC2)c(=O)c2c1ccn2COC(=O)CCC(=O)O.O=C(O)C(F)(F)F [Example 139, 4-oxo-4-({4-oxo-3-[(piperidine-4-carbonyloxy)methyl]-1-[2-(propan-2-yloxy)ethyl]-2-sulfanylidene-1H,2H,3H,4H,5H-pyrrolo[3,2-d]pyrimidin-5-yl}methoxy)butanoic acid; trifluoroacetic acid]
SGF [1, 9]: 99% remaining
human Plasma stability [2, 10]: 8% remaining
SIF [3, 11]: 98% remaining

Compound: CC(C)OCCn1c(=S)[nH]c(=O)c2c1ccn2COC(=O)CCCCCCC(=O)OCCl [Example 137, 1-Chloromethyl 8-{4-oxo-1-[2-(propan-2-yloxy)ethyl]-2-sulfanylidene-1H,2H,3H,4H,5H-pyrrolo[3,2-d]pyrimidin-5-yl}methyl octanedioate]
SGF [1, 9]: 74%
human Plasma stability [2, 10]: 1%
SIF [3, 11]: 56%

Compound: CC(C)OCCn1c(=S)[nH]c(=O)c2c1ccn2COC(=O)CCCCOC(=O)[C@H](N)C(C)C.O=C(O)C(F)(F)F [Example 338, trifluoroacetic acid {4-oxo-1-[2-(propan-2-yloxy)ethyl]-2-sulfanylidene-1H,2H,3H,4H,5H-pyrrolo[3,2-d]pyrimidin-5-yl}methyl 5-{[(2R)-2-amino-3-methylbutanoyl]oxy}pentanoate]
SGF [1, 15]: 99
human Plasma stability ([2]; % remaining @ 1 h): 4% remaining
SIF [3, 15]: 3

Compound: COc1ccc(CSc2nc(=O)c3[nH]ccc3n2CCOC(C)C)cc1 [Example 74, 2-{[(4-Methoxyphenyl)methyl]sulfanyl}-1-[2-(propan-2-yloxy)ethyl]-1H,4H,5H-pyrrolo[3,2-d]pyrimidin-4-one]
SGF [1, 9]: 37%
human Plasma stability [2, 10]: 97%
SIF [3, 11]: 97%

Compound: (2R)-2-{[(tert-butoxy)carbonyl]amino}-3-methyl-N-{2-[2-(2-{[{{4-oxo-1-[2-(propan-2-yloxy)ethyl]-2-sulfanylidene-1H,2H,3H,4H,5H-pyrrolo[3,2-d]pyrimidin-5-yl}methoxy)carbonyl]oxy}ethoxy)eth-oxy]ethyl}butanamide [Example 377]
SGF ([1]; simulated gastric fluid, bare number, unit or time not given): 83
human Plasma stability ([2]; human plasma, remaining at 1 h): 8% remaining
SIF ([3]; simulated intestinal fluid, bare number, unit or time not given): 11

Compound: CC(C)OCCn1c(=S)n(COC(=O)CCCCOC(=O)[C@@H](N)C(C)C)c(=O)c2c1ccn2COC(=O)CCCCOC(=O)[C@@H](N)C(C)C.O=C(O)C(F)(F)F.O=C(O)C(F)(F)F [Example 337, bis(trifluoroacetic acid) (3-{[(5-{[(2S)-2-amino-3-methylbutanoyl]oxy}pentanoyl)oxy]methyl}-4-oxo-1-[2-(propan-2-yloxy)ethyl]-2-sulfanylidene-1H,2H,3H,4H,5H-pyrrolo[3,2-d]pyrimidin-5-yl)methyl 5-{[(2S)-2-amino-3-methylbutanoyl]oxy}pentanoate]
SGF [1, 15]: 98
human Plasma stability ([2]; % remaining @ 1 h): 60% remaining
SIF [3, 15]: 30

Compound: CC(C)OCCn1c(=S)[nH]c(=O)c2c1ccn2S(=O)(=O)c1ccccc1 [Example 78, 5-(benzenesulfonyl)-1-[2-(propan-2-yloxy)ethyl]-2-sulfanylidene-1H,2H,3H,4H,5H-pyrrolo[3,2-d]pyrimidin-4-one]
SGF [1, 9]: 100%
human Plasma stability [2, 10]: 96%
SIF [3, 11]: 80%

Compound: Cc1ccc(S(=O)(=O)n2ccc3c2c(=O)[nH]c(=S)n3CCOC(C)C)cc1C [Example 75, 5-(3,4-Dimethylbenzenesulfonyl)-1-[2-(propan-2-yloxy)ethyl]-2-sulfanyl-1H,4H,5H-pyrrolo[3,2-d]pyrimidin-4-one]
SGF [1, 9]: 99%
human Plasma stability [2, 10]: 100%
SIF [3, 11]: 91%
